Measurements published in patent US6900200B2, “Tricyclic hydroxy carboxamides and derivatives thereof tocolytic oxytocin receptor antagonists” (Wyeth, priority 2001, dated 2005).

Key:
human oxytocin receptor = target: T1, human oxytocin receptor (Homo sapiens, UniProt P30559); test: Oxytocin binding in CHO cell membranes expressing human oxytocin receptors ([3H]oxytocin radioligand binding); details: for IC50: value printed in parentheses, read-out: OT (IC50); for inhibition at 0.1 µM: @ 100 nM, read-out: OT % inhibition @ 100 nM
T1 construct: host or cells: CHO cells, pcDNA3.1 vector
T1 sequence (P30559 1-389): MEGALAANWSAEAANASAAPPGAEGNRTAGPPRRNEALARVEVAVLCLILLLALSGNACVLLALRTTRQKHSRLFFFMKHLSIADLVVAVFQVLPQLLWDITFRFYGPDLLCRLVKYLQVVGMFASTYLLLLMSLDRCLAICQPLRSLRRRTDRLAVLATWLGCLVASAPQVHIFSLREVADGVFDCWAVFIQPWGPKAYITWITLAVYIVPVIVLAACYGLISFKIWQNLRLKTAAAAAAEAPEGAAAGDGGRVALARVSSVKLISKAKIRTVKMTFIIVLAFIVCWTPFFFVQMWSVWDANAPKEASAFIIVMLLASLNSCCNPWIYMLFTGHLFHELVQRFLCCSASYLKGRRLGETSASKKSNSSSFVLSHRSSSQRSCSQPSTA
Source text: Oxytocin Binding in Chinese Hamster Ovary Cell Membranes Expressing Human Oxytocin Receptors
Chinese Hamster Ovary (CHO) cells stably transfected with the human oxytocin receptor (cf. Tanizawa et al., U.S. Pat. No. 5,466,584 (1995) to Rohto Pharmaceutical Co. Ltd., Osaka, Japan) were obtained from M. Thibonnier, Case Western Reserve University School of Medicine, Cleveland, Ohio.
A. Passaging and Amplification of Cells
CHO cells transfected with the human oxytocin receptors obtained from M. Thibonnier (pcDNA3.1 vector) are allowed to grow to confluency (approx. >90%) in T-150 flasks under sterile conditions, in a cell culture medium of F-12 Nutrient Mixture (HAM) with L-glutamine (Gibco Cat. #11765-054) containing 15 mM HEPES (Gibco Cat. #15630-080), 1% antibiotic/antimycotic (add 5 mL 100×, Gibco Cat. #15240-062 per 500 mL F-12), 400 μg/mL of Geneticin (add 4 mL of 50 mg/mL per 500 mL F-12) and 10% Fetal Bovine Serum (Qualified, heat inactivated, Gibco Cat. #16140-063). The medium is removed by aspiration and the cells are washed with 10 mL of Hank's Balanced Salt solution (Gibco Cat. #14175-095). The salt solution is removed by aspiration and the cells trypsinized with 5 mL of trypsin-EDTA (0.05% trypsin, 0.53 mM EDTA-4Na, Gibco Cat. #25300-070) for 1 min. The trypsin is removed by aspiration and the cells dislodged by tapping. Cell Culture medium (e.g. 30 mL for 1:30 split) is immediately added and mixed well to inactivate trypsin. 1 mL of detached cells is added to new culture flasks containing fresh Cell Culture medium (e.g. into 25 mL per T-150 flask), and mixed gently. The cells are incubated at 37° C. in 5% CO2. The medium is changed at 3 to 4 days interval (or as appropriate). The cells grow to confluency (approx. >75%-95%) within 7-8 days. All steps are done under sterile conditions.
The cells are washed twice gently with Hank's Balanced Salt solution (e.g., use 10 mL per T-1 50 flask). The excess solution is removed and the cells bathed for 15-30 min. in an enzyme-free Cell Dissociation Buffer (e.g., use 8 mL Hank's Based, Gibco Cat. #13150-016 per T-150 flask) until cells are loosened. The contents are transferred to centrifuge tubes (50 mL size) kept in ice bath. All subsequent steps are done at 4° C. The tubes are centrifuged at 300×g for 15 min (1380 rpm on SORVAL, Model RT6000D, using rotor for 50 mL tubes). The supernatant is discarded and the cells suspended in homogenizing buffer (10 mM Tris-HCl containing 0.25 M sucrose and 1 mM EDTA, pH 7.4) ensuring that the volume of the buffer is about ten times the volume of the cell pellet. The cells are pooled into a centrifuge tube (50 mL) and homogenized with a Polytron at setting 6 for 10 sec. The homogenate is transferred into a Potter-Elvjehm homogenizer and homogenized with 3 strokes. The homogenate is centrifuged at 1500×g for 10 min at 4° C. (3100 rpm using SORVAL, model RT6000D, using rotor for 50 mL tubes). The pellet is discarded. The supernatant is centrifuged at 100,000×g for 60 min. at 4° C. (Beckman L8-80M ultracentrifuge; spin at 37,500 rpm with rotor type 70 Ti for 50 mL tubes; 38,000 rpm with type 80Ti for 15 mL tubes; or 35,800 rpm with rotor type 45Ti). The supernantant is discarded and the pellet suspended in 3 to 4 mL of Tris buffer (50 mM TRIS—HCl, pH 7.4). The protein content is estimated by the Bradford or Lowry method. The volume of the membrane suspension is adjusted with the membrane buffer (50 mM Tris-HCl containing 0.1% BSA and 0.1 mM PMSF) to give 3.0 mg/mL (or as appropriate) of protein. The membranes are aliquoted and stored at −70° C.
C. Radioligand Binding Assay
In wells of a 96-well format microtiter plate, is added 90, 110 or 130 μL (to make up a final volume of 200 μL) of assay buffer containing 50 mM of Tris-HCl (pH 7.4), […], 1 mg % aprotinin, 1 mg % leupeptin, 2 mg % 1,10-phenanthroline, 10 mg % trypsin inhibitor, and 0.1 mM PMSF. […]

melting point	IC50 (human oxytocin receptor) [nM]	inhibition at 0.1 µM (human oxytocin receptor) [%]	Compound
119 to 123 °C	1.73	–	COc1cc(C(=O)N2Cc3ccc(C(=O)N(C)CC(O)CO)n3Cc3ccccc32)ccc1-c1ccccc1C(F)(F)F (stereo not drawn) [Example 21, N-(2,3-Dihydroxypropyl)-10-{[2-methoxy-2′-trifluoromethyl-[1,1′-biphenyl]-4-yl]carbonyl}-N-methyl-10,11-dihydro-5H-pyrrolo[2,1-c][1,4]benzodiazepine-3-carboxamide]
130 to 132 °C	–	27	COc1cc2c(cc1OC)N(C(=O)c1ccc(-c3ccccc3C(F)(F)F)c(C)c1)Cc1ccc(C(=O)N(CCO)CCO)n1C2 [Example 19, N,N-Bis(2-Hydroxyethyl)-7,8-dimethoxy-10-{[2-methyl-2′-trifluoromethyl-[1,1′-biphenyl]-4-yl]carbonyl}-10,11-dihydro-5H-pyrrolo[2,1-c][1,4]benzodiazepine-3-carboxamide]
184 to 186 °C	–	36	COc1cc2c(cc1OC)N(C(=O)c1ccc(-c3ccccc3C(F)(F)F)c(C)c1)Cc1ccc(C(=O)N(C)CC(O)CO)n1C2 (stereo not drawn) [Example 18, N-(2,3-Dihydroxypropyl)-7,8-dimethoxy-N-methyl-10-{[2-methyl-2′-trifluoromethyl-[1,1′-biphenyl]-4-yl]carbonyl}-10,11-dihydro-5H-pyrrolo[2,1-c][1,4]benzodiazepine-3-carboxamide]
110 to 120 °C	–	53	COc1cc2c(cc1OC)N(C(=O)c1ccc(-c3ccccc3OC)c(C)c1)Cc1ccc(C(=O)N(C)C[C@H](O)[C@@H](O)[C@H](O)[C@H](O)CO)n1C2 [Example 37, 7,8-Dimethoxy-10-[(2′-methoxy-2-methyl-[1,1′-biphenyl]-4-yl)carbonyl]-10,11-dihydro-5H-pyrrolo[2,1-c][1,4]benzodiazepine-3-carboxylic acid methyl-[(2S, 3R, 4R, 5R)-2,3,4,5,6-pentahydroxy-hexyl)-amide]
140 to 144 °C	30.7	–	COCCN1CCN(C(=O)c2ccc3n2Cc2ccccc2N(C(=O)c2ccc(-c4ccccc4C(F)(F)F)c(C)c2)C3)CC1 [Example 7, Methyl 2-{4-[(10-{[2-methyl-2′-trifluoromethyl-[1,1′-biphenyl]-4-yl]carbonyl}-10,11-dihydro-5H-pyrrolo[2,1-c][1,4]benzodiazepin-3-yl)carbonyl]piperazin-1-yl}ethyl ether]
120 to 125 °C (dec.)	1.47	–	COc1cc(C(=O)N2Cc3ccc(C(=O)N(C)CC(O)CN(C)C)n3Cc3ccccc32)ccc1-c1ccccc1C(F)(F)F (stereo not drawn) [Example 22, N-[(3-Dimethylamino)-2-hydroxy-propyl]-10-{[2-methoxy-2′-trifluoromethyl-[1,1′-biphenyl]-4-yl]carbonyl}-N-methyl-10,11-dihydro-5H-pyrrolo[2,1-c][1,4]benzodiazepine-3-carboxamide]
–	3	–	COc1cc(-c2ccccc2C)c(Cl)cc1C(=O)N1Cc2ccc(C(=O)N3CCN(CCO)CC3)n2Cc2ccccc21 [Example 39, {10-[(6-Chloro-3-methoxy-2′-methyl[1,1′-biphenyl]-4-yl)carbonyl]-10,11-dihydro-5H-pyrrolo[2,1-c][1,4]benzodiazepin-3-yl}[4-(2-hydroxyethyl)-1-piperazinyl]methanone]
169 to 172 °C	3.09	–	Cc1cc(C(=O)N2Cc3ccc(C(=O)N(C)CC(O)CO)n3Cc3ccccc32)ccc1-c1ccccc1C(F)(F)F (stereo not drawn) [Example 2, 10-[(2-Methyl-2′-trifluoromethyl-[1,1′-biphenyl]-4-yl)carbonyl]-10,11-dihydro-5H-pyrrolo[2,1-c][1,4]benzodiazepine-3-carboxylic acid (2,3-dihydroxy-propyl)-methyl-amide]
